Test system: pERK in NCI-H358 cells
Assay: Cell-based pERK HTRF assay (pERK inhibition in H358 cells)
Conditions: Homo sapiens, NCI-H358, 0.5 h, pERK inhibition IC50, NCI-H358 cells, 30 min incubation; read-out: PERK in H358 cell

SMILES | IC50 [nM]
C=CC(=O)N1CCC(N(C)c2nc(OC[C@@]34CCCN3C[C@H](OC)C4)nc3c(F)c(-c4ccc(F)c5sc(N)c(C#N)c45)c(C(F)(F)F)cc23)[C@H]1C (some centres unmarked) [Compound 476] | < 100
C=CC(=O)N1CCC(N(C)c2nc(OC)nc3c(F)c(-c4ccc(F)c5sc(N)c(C#N)c45)ccc23)[C@H]1C (some centres unmarked) [Compound 461] | > 1000
C=CC(=O)N1CC(Nc2nc(OCC34CCCN3CCC4)nc3c(F)c(-c4ccc(F)c5sc(N)nc45)c(-c4ccoc4)cc23)C1 [Compound 70, 1-(3-((7-(2-amino-7-fluorobenzo[d]thiazol-4-yl)-8-fluoro-6-(furan-3-yl)-2-((tetrahydro-1H-pyrrolizin-7a(5H)-yl)methoxy)quinazolin-4-yl)amino)azetidin-1-yl)prop-2-en-1-one] | > 1000
C=CC(=O)N1C[C@H](N(C)c2nc(OC[C@@]34CCCN3C[C@H](F)C4)nc3c(F)c(-c4ccc(F)c5sc(N)nc45)c(C(F)(F)F)cc23)C[C@@H]1C [Compound 293] | < 100
C=CC(=O)N1CC[C@H](N(C)c2nc(OC[C@@]34CCCN3C[C@H](F)C4)nc3c(F)c(-c4ccc(F)c5sc(N)c(C#N)c45)c(Cl)cc23)[C@@H]1C (atropisomer, axis not shown) [Compound 467] | < 100
C=CC(=O)N1CCN(c2ncnc3c(F)c(-c4ccc(F)c5sc(N)nc45)c(CC#N)cc23)CC1 [Compound 72] | > 1000
C=CC(=O)N1CC(Nc2nc(OC[C@@H]3CCCN3C)nc3c(F)c(-c4ccc(F)c5sc(N)nc45)ncc23)C1 [Compound 43] | > 1000
C=CC(=O)N1CC[C@@H](N(C)c2ncnc3c(F)c(-c4ccc(F)c5sc(N)c(C#N)c45)c(C(F)(F)F)cc23)C1 [Compound 383, 4-(4-(((R)-1-acryloylpyrrolidin-3-yl)(methyl)amino)-8-fluoro-6-(trifluoromethyl)quinazolin-7-yl)-2-amino-7-fluorobenzo[b]thiophene-3-carbonitrile] | < 100
C#CC(=O)N1CC(Nc2nc(OC[C@@H]3CCCN3C)nc3c(F)c(-c4ccc(F)c5sc(N)nc45)c(Cl)cc23)C1 [Compound 81] | 100 to 1000
C=CC(=O)N1CCC(N(C)c2nc(OC[C@]34CCCN3C[C@H](F)C4)nc3c(F)c(-c4ccc(F)c5sc(N)c(C#N)c45)c(C(F)(F)F)cc23)[C@H]1C (some centres unmarked) [Compound 477] | < 100
CC#CC(=O)N1CCN(c2nc(OC[C@]34CCCN3C[C@H](F)C4)nc3c(F)c(-c4ccc(F)c5sc(N)nc45)c(C(F)(F)F)cc23)CC1 [Compound 149] | < 100
C=CC(=O)N1CC[C@@H](N(C)c2nc(OC[C@@]34CCCN3C[C@H](F)C4)nc3c(F)c(-c4ccc(F)c5oc(N)nc45)c(C(F)(F)F)cc23)C1 [Compound 275] | < 100
C=CC(=O)N1C[C@H](C)N(c2nc(OC[C@@]34CCCN3C[C@H](F)C4)nc3cc(-c4ccc(F)c5sc(N)nc45)c(C(F)(F)F)cc23)C[C@H]1C [Compound 299] | < 100
C=CC(=O)N1CCC(N(C)c2nc(OC[C@@H]3CCCN3C)nc3c(F)c(-c4ccc(F)c5sc(N)c(C#N)c45)c(C(F)(F)F)cc23)[C@H]1C (some centres unmarked) [Compound 400] | < 100
C=CC(=O)N1CC[C@@H](N(CC)c2nc(OC[C@@]34CCCN3C[C@H](F)C4)nc3c(F)c(-c4ccc(F)c5sc(N)c(C#N)c45)c(C(F)(F)F)cc23)[C@H]1C [Compound 403] | < 100
C=CC(=O)N1CCC(N(CC)c2nc(OC[C@@]34CCCN3C[C@H](F)C4)nc3c(C#N)c(-c4ccc(F)c5sc(N)c(C#N)c45)c(Cl)cc23)[C@H]1C (some centres unmarked) [Compound 411] | < 100
C=CC(=O)N1CCN(c2nc(OC[C@@]34CCCN3C[C@H](F)C4)nc3c(F)c(-c4ccc(F)c5sc(N)c(C#N)c45)c(C(F)(F)F)cc23)[C@@H](C)C1 [Compound 347] | < 100
CN1CCC[C@H]1COc1nc(NC2CCN(C#N)CC2)c2cc(Cl)c(-c3ccc(F)c4sc(N)nc34)c(F)c2n1 [Compound 55] | > 1000
C=CC(=O)N1CCC(N(CC)c2nc(OC[C@@H]3C[C@@H](OC)CN3C)nc3c(F)c(-c4ccc(F)c5sc(N)c(C#N)c45)c(C(F)(F)F)cc23)[C@H]1C (some centres unmarked) [Compound 392] | < 100
C=CC(=O)N1CCN(c2ncnc3c(F)c(-c4ccc(F)c5sc(N)nc45)c(C4CCC4)cc23)CC1 [Compound 122] | > 1000

The next lines start with the values.

IC50 [nM] | SMILES
100 to 1000 | C=CC(=O)N1CCC(N(C)c2nc(OC[C@@]34CCCN3C[C@H](F)C4)nc3c(Cl)c(-c4ccc(F)c5sc(N)c(C#N)c45)c(C#N)cc23)[C@H]1C (some centres unmarked) [Compound 425]
< 100 | C=CC(=O)N1CCN(c2nc(OC[C@]34CCCN3C[C@H](F)C4)nc3c(F)c(-c4ccc(F)c5sc(N)nc45)c(C(F)(F)F)cc23)CC1 [Compound 150]
< 100 | C=CC(=O)N1C[C@H](C)N(c2nc(OCC34CCCN3CCC4)nc3c(F)c(-c4ccc(F)c5sc(N)nc45)c(C(F)(F)F)cc23)C[C@H]1C [Compound 281]
< 100 | C=CC(=O)N1C[C@H](C)N(c2nc(OC[C@@]34CCCN3C[C@H](OC)C4)nc3c(F)c(-c4ccc(F)c5sc(N)c(C#N)c45)c(C(F)(F)F)cc23)C[C@H]1C [Compound 341]
100 to 1000 | C=CC(=O)N1CCC(N(C)c2nc(OC[C@@H]3CC4(CC4)CN3C)nc3c(F)c(-c4ccc(F)c5sc(N)c(C#N)c45)c(Cl)cc23)[C@H]1C (some centres unmarked) [Compound 448]
< 100 | C=CC(=O)N1C[C@@H](F)[C@@H](N(C)c2nc(OC[C@@H]3C[C@@H](OC)CN3C)nc3cc(-c4ccc(F)c5sc(N)nc45)c(C(F)(F)F)cc23)C1 [Compound 350]
< 100 | C=CC(=O)N1C[C@@H](F)[C@@H](N(C)c2nc(OC[C@@H]3C[C@@H](F)CN3C)nc3cc(-c4ccc(F)c5sc(N)nc45)c(C(F)(F)F)cc23)C1 [Compound 355]
< 100 | C=CC(=O)N1C[C@H](C)N(c2nc(OC[C@@]34CCCN3C[C@H](F)C4)nc3c(Cl)c(-c4ccc(F)c5sc(N)c(C#N)c45)c(C#N)cc23)C[C@H]1C [Compound 422]
100 to 1000 | C=CC(=O)N1CCC(N(C)c2nc(OC[C@@H]3CCCN3C)nc3cc(-c4ccc(F)c5sc(N)c(C#N)c45)c(F)cc23)[C@H]1C (some centres unmarked) [Compound 417]
< 100 | C=CC(=O)N1C[C@H](C)N(c2nc(OCC34CCCN3C[C@H](F)C4)nc3c(F)c(-c4ccc(F)c5sc(C(F)F)nc45)c(C(F)(F)F)cc23)C[C@H]1C (some centres unmarked) [Compound 307]
< 100 | C=CC(=O)N1C[C@H](N(C)c2nc(OC[C@@]34CCCN3C[C@H](F)C4)nc3c(F)c(-c4ccc(F)c5sc(N)nc45)c(C(F)(F)F)cc23)C(C)(C)C1 [Compound 301]
< 100 | C=CC(=O)N1C[C@@H](F)[C@@H](N(C)c2nc(OC[C@@]34CCCN3C[C@H](F)C4)nc3cc(-c4ccc(F)c5sc(N)nc45)c(C(F)(F)F)cc23)C1 [Compound 317]
< 100 | C=CC(=O)N1CC[C@@H](N(C)c2nc(OC)nc3c(F)c(-c4ccc(F)c5sc(N)c(C#N)c45)c(C(F)(F)F)cc23)C1 [Compound 384]
< 100 | C=CC(=O)N1CC[C@@H](N(CC)c2nc(OC[C@@]34CCCN3C[C@H](F)C4)nc3cc(-c4ccc(F)c5sc(N)c(C#N)c45)c(C(F)(F)F)cc23)C1 [Compound 352]
< 100 | C=CC(=O)N1C[C@H](F)[C@@H](N(C)c2nc(OC[C@@]34CCCN3C[C@H](F)C4)nc3c(F)c(-c4ccc(F)c5sc(N)c(C#N)c45)c(C(F)(F)F)cc23)C1 [Compound 327]
> 1000 | C=CC(=O)N1CC(N(c2nc(OC[C@]34CCCN3C[C@H](F)C4)nc3c(F)c(-c4ccc(F)c5sc(N)nc45)c(Cl)cc23)C2CC2)C1 [Compound 210]
> 1000 | C=CC(=O)N1CC(Nc2nc(OCC34CCCN3CCC4)nc3c(F)c(-c4ccc(F)c5sc(N)nc45)c(CC#N)cc23)C1 [Compound 91, 2-(4-((1-acryloylazetidin-3-yl)amino)-7-(2-amino-7-fluorobenzo[d]thiazol-4-yl)-8-fluoro-2-((tetrahydro-1H-pyrrolizin-7a(5H)-yl)methoxy)quinazolin-6-yl)acetonitrile]
100 to 1000 | C=CC(=O)N1CC[C@@H](N(CC)c2nc(OC[C@@]34CCCN3C[C@H](F)C4)nc3cc(-c4ccc(F)c5sc(N)c(C#N)c45)c(C#N)cc23)[C@H]1COC [Compound 439]
< 100 | C=CC(=O)N1CCC(N(C)c2nc(OC[C@@]34CCCN3C[C@H](F)C4)nc3cc(-c4ccc(F)c5sc(N)c(C#N)c45)c(C#N)cc23)[C@H]1C (stereo partly drawn) [Compound 387, 4-((1-acryloyl-2-methylpyrrolidin-3-yl)(methyl)amino)-7-(2-amino-3-cyano-7-fluorobenzo[b]thiophen-4-yl)-2-(((2R,7aS)-2-fluorotetrahydro-1H-pyrrolizin-7a(5H)-yl)methoxy)quinazoline-6-carbonitrile]
< 100 | C=CC(=O)N1CCC(N(CC)c2nc(OC[C@@H]3CC4(CC4)CN3C)nc3c(F)c(-c4ccc(F)c5sc(N)c(C#N)c45)c(C(F)(F)F)cc23)[C@H]1C (some centres unmarked) [Compound 405]
> 1000 | C=CC(=O)N1C[C@@H](Nc2nc(OCC34CCCN3CCC4)nc3c(F)c(-c4ccc(F)c5sc(N)nc45)c(Cl)cc23)[C@H]1C [Compound 197]
> 1000 | CC#CC(=O)N1CC[C@@H]2[C@H]1CN2c1nc(OCC23CCCN2CCC3)nc2c(F)c(-c3ccc(F)c4sc(N)nc34)c(C(F)(F)F)cc12 [Compound 180]
< 100 | C=CC(=O)N1CCC(N(CC)c2nc(OC[C@@]34CCCN3C[C@H](F)C4)nc3cc(-c4ccc(F)c5sc(N)c(C#N)c45)ccc23)[C@H]1C (some centres unmarked) [Compound 431]
> 1000 | C=CC(=O)N1CCC(N(C)c2nc(OCCOC)nc3c(F)c(-c4ccc(F)c5sc(N)c(C#N)c45)ccc23)[C@H]1C (some centres unmarked) [Compound 466]

Same assay, conditions: pERK inhibition IC50, NCI-H358 cells, 30 min incubation; read-out: PERK in H358 cell

IC50 [nM] | SMILES
> 1000 | C=CC(=O)N1CC[C@@H](N(C)c2nc(OCC34CCCN3CCC4)nc3c(F)c(-c4ccc(F)c5sc(N)nc45)c(C(F)(F)F)cc23)C1 (atropisomer, axis not shown) [Compound 221]
< 100 | C=CC(=O)N1CCC[C@@H](N(C)c2nc(OC[C@@]34CCCN3C[C@H](F)C4)nc3c(F)c(-c4ccc(F)c5sc(N)nc45)c(C(F)(F)F)cc23)C1 [Compound 244]
> 1000 | C=CC(=O)N1CC[C@@H](N(C)c2nc(OC[C@@H]3CC(F)(F)CN3C)nc3c(F)c(-c4ccc(F)c5sc(N)nc45)c(C(F)(F)F)cc23)C1 (atropisomer, axis not shown) [Compound 229]
